Like-named read-outs stand apart in the source and are kept apart here.
Columns and labels:
Type in all cases: binding
[1] = target: T1, HeLa cell extract proteins (Homo sapiens, UniProt P50416)
T1 construct: endogenous in cells; host or cells: HeLa cell extract
T1 sequence (P50416 1-773): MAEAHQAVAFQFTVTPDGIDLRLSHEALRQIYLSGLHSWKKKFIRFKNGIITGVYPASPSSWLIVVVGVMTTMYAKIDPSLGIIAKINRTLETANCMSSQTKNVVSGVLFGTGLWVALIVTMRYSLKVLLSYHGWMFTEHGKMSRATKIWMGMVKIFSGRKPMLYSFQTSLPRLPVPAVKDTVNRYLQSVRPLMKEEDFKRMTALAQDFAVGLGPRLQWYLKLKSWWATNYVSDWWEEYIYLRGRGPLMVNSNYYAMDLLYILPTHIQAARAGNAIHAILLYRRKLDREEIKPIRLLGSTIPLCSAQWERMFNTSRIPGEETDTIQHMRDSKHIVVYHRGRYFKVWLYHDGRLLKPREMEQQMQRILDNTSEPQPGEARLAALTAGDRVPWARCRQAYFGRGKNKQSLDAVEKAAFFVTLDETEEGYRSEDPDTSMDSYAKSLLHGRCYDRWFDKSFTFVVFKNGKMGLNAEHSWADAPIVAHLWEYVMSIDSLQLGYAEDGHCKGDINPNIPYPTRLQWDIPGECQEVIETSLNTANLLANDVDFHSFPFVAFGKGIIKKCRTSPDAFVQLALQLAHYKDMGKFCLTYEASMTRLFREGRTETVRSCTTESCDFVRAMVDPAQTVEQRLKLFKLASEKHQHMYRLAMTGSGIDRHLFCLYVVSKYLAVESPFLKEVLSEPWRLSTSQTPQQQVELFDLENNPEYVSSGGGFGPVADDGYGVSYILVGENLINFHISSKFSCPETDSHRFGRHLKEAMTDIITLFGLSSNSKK

[2] = target: T2, HeLa cell extract proteins (Homo sapiens, UniProt P48047)
T2 construct: endogenous in cells; host or cells: HeLa cell extract
T2 sequence (P48047 24-213): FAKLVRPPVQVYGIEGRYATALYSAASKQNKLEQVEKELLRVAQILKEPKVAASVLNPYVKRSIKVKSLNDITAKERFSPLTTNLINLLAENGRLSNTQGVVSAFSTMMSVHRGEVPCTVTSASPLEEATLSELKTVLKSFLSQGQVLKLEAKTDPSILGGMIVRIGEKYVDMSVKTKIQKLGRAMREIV

[3] = target: T3, HeLa cell extract proteins (Homo sapiens, UniProt P57678)
T3 construct: endogenous in cells; host or cells: HeLa cell extract
T3 sequence (P57678 1-1058): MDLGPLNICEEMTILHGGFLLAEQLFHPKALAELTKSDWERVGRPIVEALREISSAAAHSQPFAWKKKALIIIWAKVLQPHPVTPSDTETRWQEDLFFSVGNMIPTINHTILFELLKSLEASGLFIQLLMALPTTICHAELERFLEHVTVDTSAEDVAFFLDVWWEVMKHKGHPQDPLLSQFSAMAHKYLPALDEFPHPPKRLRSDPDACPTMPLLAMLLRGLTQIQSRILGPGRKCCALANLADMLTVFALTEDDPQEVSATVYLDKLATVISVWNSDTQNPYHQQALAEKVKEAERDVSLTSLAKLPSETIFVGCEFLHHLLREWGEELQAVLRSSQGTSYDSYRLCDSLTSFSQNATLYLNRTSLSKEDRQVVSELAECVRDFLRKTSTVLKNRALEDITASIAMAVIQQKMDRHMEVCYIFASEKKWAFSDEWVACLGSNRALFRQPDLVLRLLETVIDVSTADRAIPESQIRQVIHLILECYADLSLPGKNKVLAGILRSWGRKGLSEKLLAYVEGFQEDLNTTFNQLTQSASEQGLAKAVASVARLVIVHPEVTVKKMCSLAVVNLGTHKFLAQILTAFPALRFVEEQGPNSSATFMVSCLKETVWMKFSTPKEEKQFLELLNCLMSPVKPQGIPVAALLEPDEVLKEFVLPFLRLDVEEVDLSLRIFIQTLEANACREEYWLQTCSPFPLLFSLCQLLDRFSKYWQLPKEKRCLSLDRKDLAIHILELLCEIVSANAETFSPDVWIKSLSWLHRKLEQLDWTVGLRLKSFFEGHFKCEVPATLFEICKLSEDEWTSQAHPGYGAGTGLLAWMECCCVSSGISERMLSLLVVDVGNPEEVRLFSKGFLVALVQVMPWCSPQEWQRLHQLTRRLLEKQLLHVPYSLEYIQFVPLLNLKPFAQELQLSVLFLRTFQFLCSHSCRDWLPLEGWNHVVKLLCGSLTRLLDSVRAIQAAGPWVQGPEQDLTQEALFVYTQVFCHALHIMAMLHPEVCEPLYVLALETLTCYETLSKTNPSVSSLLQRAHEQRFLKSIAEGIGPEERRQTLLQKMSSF

[4] = target: T4, HeLa cell extract proteins (Homo sapiens, UniProt P52209)
T4 construct: endogenous in cells; host or cells: HeLa cell extract
T4 sequence (P52209 1-483): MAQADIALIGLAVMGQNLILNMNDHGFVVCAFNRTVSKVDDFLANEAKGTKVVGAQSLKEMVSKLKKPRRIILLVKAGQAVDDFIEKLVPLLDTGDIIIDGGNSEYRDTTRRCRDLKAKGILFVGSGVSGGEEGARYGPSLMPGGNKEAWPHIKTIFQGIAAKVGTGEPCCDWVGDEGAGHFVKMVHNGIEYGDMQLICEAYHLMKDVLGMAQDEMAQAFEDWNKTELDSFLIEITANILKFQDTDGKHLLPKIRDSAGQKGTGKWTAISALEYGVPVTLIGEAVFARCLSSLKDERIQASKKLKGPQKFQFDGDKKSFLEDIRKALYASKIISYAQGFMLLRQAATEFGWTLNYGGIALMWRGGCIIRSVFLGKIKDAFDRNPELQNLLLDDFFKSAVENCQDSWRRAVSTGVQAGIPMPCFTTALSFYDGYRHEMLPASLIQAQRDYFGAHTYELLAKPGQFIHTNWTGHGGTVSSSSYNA

[5] = HeLa, protein PGD (56 KDA PROTEIN.)

Compound	fold changes relative to vehicle control ([1]; captured protein CPT1A, HeLa)	fold changes relative to vehicle control ([2]; protein ATP5O, HeLa)	fold changes relative to vehicle control ([3]; captured protein GEMIN4, HeLa)	fold changes relative to vehicle control [4, 5] [fold]	fold changes relative to vehicle control ([1]; HeLa, protein CPT1A)	fold changes relative to vehicle control ([2]; HeLa, captured protein ATP5O)	fold changes relative to vehicle control ([3]; HeLa, protein GEMIN4)	fold changes relative to vehicle control ([4]; protein PGD, HeLa)	further results
Nc1nc2cccc(-c3ccccc3)c2n1Cc1ccc(Cl)c(Cl)c1 [compound 3]	0.95	0.9	1.02	0.86					
CCCCCCOc1ccc(Cc2cnc(N)nc2N)cc1 [compound 1]	0.9	0.98	0.88	1.44					
NCCCNc1ccc(C(=O)NC(CCC(=O)O)C(=O)O)cc1 (stereo not shown) [compound 7]					0.99	1.02	0.99	0.86	
CCCCCCOc1cccc(Cc2cnc(N)nc2N)c1 [compound 2]	1.04	0.98	0.92	2.49					
NCCOCCOCC(=O)Nc1nc2ncc(CNc3ccc(C(=O)NC(CCC(=O)O)C(=O)O)cc3)nc2c(=O)[nH]1 (stereo not shown) [compound 6]					1.01	0.97	1.02	1.35	
Nc1nc2[nH]cc(CCc3ccc(C(=O)N[C@@H](CCC(=O)O)C(=O)O)cc3)c2c(=O)[nH]1 [PTX, pemetrexed]									fold changes relative to vehicle control [1]: 0.84; fold changes relative to vehicle control [2]: 1.01; fold changes relative to vehicle control [3]: 0.94; fold changes relative to vehicle control [4]: 1.17
Nc1nc2c(c(=O)[nH]1)N(C=O)C(CNc1ccc(C(=O)N[C@@H](CCC(=O)O)C(=O)O)cc1)CN2 (stereo partly shown) [LEU, leucovorin]					0.88	1.01	0.93	0.97	

Source: PMC6199744, “Development of Chemical Proteomics for the Folateome and Analysis of the Kinetoplastid Folateome” (ACS Infectious Diseases, 2018)
